# From US6472526B1, “Imidazole derivatives having an inhibitory activity for farnesyl transferase and process for preparation thereof” (LG Chemical Ltd., priority 1997, dated 2002)
# How the values were obtained:
# Ras farnesyl transferase [1] = target: T1, Ras farnesyl transferase (Homo sapiens, UniProt P49354+P49356); experiment: In vitro inhibitory activity for Ras farnesyl transferase, H-Ras substrate; format: biochemical; details: recombinant farnesyl transferase 4.5 nM, Ras substrate protein 1.5 μM, tritium-farnesylpyrophosphate 0.15 μM, 30 minutes at 37° C.; read-out: H-Ras IC50
# T1 construct: made in house
# Description: In the present experiment, Ras farnesyl transferase produced by genetic recombination techniques according to the improved Pompliano's method (Pompliano et al., Biochemistry, 1992, 31, 3800) was used, and Ras substrate (Ras-CVLS) protein described in Korean Patent Appln. No. 97-14409 was used after it has been purified according to the known method (see, Chung et al., Biochimica et Biophysica Acta, 1992, 278, 1129).
# The enzyme reaction was performed in 50 μl of 50 mM Sodium HEPES buffer solution containing 25 mM of potassium chloride, 25 mM of magnesium chloride, 10 mM of DTT and 50 μM of zinc chloride. 1.5 μM of Ras substrate protein, 0.15 μM of tritium-farnesylpyrophosphate and 4.5 nM of farnesyl transferase were used.
# More specifically, in the initial step, farnesyl transferase was added to the above buffer solution, reaction was maintained for 30 minutes at 37° C. and then the reaction was stopped by adding 1 ml of ethanol solution containing 1M HCl. The formed precipitates were adsorbed to GF/B filter using Hopper harvestor(Hopper #FH 225V) for filter-binding, washed with ethanol, and then radioactivity of the dried filter was measured using LKB β counter. Enzyme titer was measured in the unsaturated state of substrate where the concentrations of Ras substrate protein and farnesyl transferase have quantitative relationship. The compound according to the present invention dissolved in dimethyl sulfoxide (DMSO) was added to the reaction solution in an amount of less than 5% of the total reaction solution, and then the enzyme inhibitory activity thereof was measured. The enzyme inhibitory activity was represented by percentage of the amount of farnesyl incorporated into the Ras substrate protein in the presence of the test compound to that in the absence of the test compound. IC50 of the test compound was defined as the concentration at which 50% of the enzyme activity was inhibited.
# Ras farnesyl transferase [2] = target: T1, Ras farnesyl transferase; experiment: In vitro inhibitory activity for Ras farnesyl transferase, K-Ras substrate; format: biochemical; details: in vitro farnesyl transferase assay, K-Ras; read-out: K-Ras IC50
# Ras farnesyl transferase [3] = target: T2, Ras farnesyl transferase (Rattus norvegicus, UniProt Q02293+Q04631); experiment: In vivo (cellular) inhibitory activity for Ras farnesyl transferase, Rat2 cell line transformed with fused protein of H-Ras substituted with polybasic lysine domain at C-terminus of K-Ras; format: cell-based; details: Rat2 cell line transformed with H-Ras fused with polybasic lysine domain of K-Ras C-terminus; concentration inhibiting 50% of farnesyl bonding; read-out: K-Ras CIC50
# T2 construct: endogenous in cells; host or cells: Rat2 fibroblasts transformed with H-Ras or with an H-Ras/K-Ras C-terminus fusion
# Description: (§1) In the present experiment, Rat2 cell line which expresses C-Harvey-Ras protein having transforming activity and Rat2 cell line (Korean patent application No. 97-14409) which is transformed with fused protein of H-Ras substituted with polybasic lysine domain at C-terminus of K-Ras were used. The experiment was performed by the modified Declue's method (Declue. J. E. et al., Cancer Research, 1991, 51, 712). Hereinafter, the experimental method will be described in more detail.
# (§2) 3×10^5 cells of transformed Rat2 fibroblast cell line were sprayed on 60 mm cell cultivation dish and cultivated for 48 hours in a cell incubator at 37° C. and after 50% or more of density was reached, it was treated with the test compounds. The compound according to the present invention dissolved in dimethylsulfoxide (DMSO) was used. 1% concentration of dimethylsulfoxide was used in both control and test groups. After 4 hours from the treatment with the compound, methionine labeled with 150 μCi of radioactive isotope [^35S] per 1 ml of medium was added and after cultivating for 20 hours, the cells were, washed with physiological saline water. The cells were lysed using 1 ml of cold cell lysis buffer solution (50 mM of Sodium HEPES buffer solution containing 5mM of magnesium chloride, 1 mM of DTT, 1% NP 40, 1 mM of EDTA, 1 mM of PMSF, 2 μM of leupeptin, 2 μM of pepstatin A and 2 μM of antipain) and the supernatant wherein the cells were lysed was obtained by high-velocity centrifugation of 12,000 g×5 minutes. The amount of radioisotope in the supernatant was measured and standardized to obtain a quantitative result in immunoprecipitation reaction and then, Y13-259, a monoclonal antibody specifically binding to Ras protein (Furth, M. E. et al., J. Virol, 1982, 43, 294) was added and reacted for 15 hours at 4° C. Protein A(combined with goat anti-murine immunoglobulin antibody)-agarose suspension was added to the solution and reacted for 1 hour at 4° C. and then, to remove the unspecific binding product, immunoprecipitates were washed with a buffer solution (50 mM Tris chloride buffer solution containing 50 mM of sodium chloride, 0.5% of sodium dioxycolate, 0.5% of NP 40 and 0.1% of SDS). The precipitates were added to a buffer solution for electrophoresis and boiled and then, electrophoresis was performed using 13.5% of SDS polyacrylamide gel. After electrophoresis, the gel was fixed and dried. Then, the gel was exposed to X-ray film, developed printed. From the result of the experiment, intensities of band of in combined with or without farnesyl of Ras protein were measured, the concentration of the test compound inhibiting 50% of farnesyl bonding was defined as […], an in vivo Ras farnesyl transferase inhibitory activity.
# Ras farnesyl transferase [4] = target: T2, Ras farnesyl transferase; experiment: In vivo (cellular) inhibitory activity for Ras farnesyl transferase, Rat2 cell line which expresses C-Harvey-Ras protein; format: cell-based; details: Rat2 cell line expressing C-Harvey-Ras; concentration inhibiting 50% of farnesyl bonding of Ras protein; read-out: H-Ras CIC50
# Description: as §1, §2
Molecule,IC50 (Ras farnesyl transferase [1]) [nM],IC50 (Ras farnesyl transferase [2]) [nM],IC50 (Ras farnesyl transferase [3]) [nM],IC50 (Ras farnesyl transferase [4]) [nM]
1-[1-(4-Methoxybenzyl)-1H-imidazol-5-yl]methyl-3-[N-(2-methoxyethyl)-N-methyl]carbamoyl-4-(naphthalen-1-yl)-1H-pyrrole [Compound 129],3,4,10000 to 50000,25
"COCCN(C)C(=O)c1cn(Cc2cncn2C(C)c2ccccc2)cc1-c1cccc2ccccc12 (stereo in doubt) [Compound 8, 3-[N-(2-Methoxyethyl)-N-methyl]carbamoyl-1-[1-((R)-α-methylbenzyl)-1H-imidazol-5-ylmethyl]-4-(naphthalen-1-yl)-1H-pyrrole]",4,8,10000 to 50000,25
"CC(c1ccccc1)n1cncc1Cn1cc(C(=O)N2CCOCC2)c(-c2cccc3ccccc23)c1 (stereo in doubt) [Compound 9, 1-[1-((R)-α-Methylbenzyl)-1H-imidazol-5-ylmethyl]-3-(morpholin-4-yl)carbonyl-4-(naphthalen-1-yl)-1H-pyrrole]",5,6.6,10000 to 50000,25
"CC(c1ccccc1)n1cncc1Cn1cc(C(=O)N2CCN(C)CC2)c(-c2cccc3ccccc23)c1 (stereo in doubt) [Compound 10, 1-[1-((R)-α-Methylbenzyl)-1H-imidazol-5-ylmethyl]-3-(4-methylpiperazin-1-yl)carbonyl-4-(naphthalen-1-yl)-1H-pyrrole]",0.85,5,10000 to 50000,12.5
"COC(=O)C(CCSC)NC(=O)c1cn(Cc2cncn2Cc2ccc(C#N)cc2)cc1-c1cccc2ccccc12 (stereo in doubt) [Compound 100, (S)-1-[1-(4-Cyanobenzyl)-1H-imidazol-5-yl]methyl-3-[N-(1-methoxycarbonyl-3-methylthio)propyl]carbamoyl-4-(naphthalen-1-yl)-1H-pyrrole]",1800,100 to 10000,> 20000,> 1000
"O=C(c1cn(Cc2cncn2Cc2ccc3c(c2)OCO3)cc1-c1cccc2ccccc12)N1CCOCC1 [Compound 2, 1-[1-(3,4-Methylenedioxybenzyl)-1H-imidazol-5-ylmethyl]-3-(morpholin-4-yl)carbonyl-4-(naphthalen-1-yl)-1H-pyrrole]",0.85,2,10000 to 50000,25
"CN1CCN(C(=O)c2cn(Cc3cncn3Cc3ccc4c(c3)OCO4)cc2-c2cccc3ccccc23)CC1 [Compound 3, 1-[1-(3,4-Methylenedioxybenzyl)-1H-imidazol-5-ylmethyl]-3-(4-methylpiperazin-1-yl)carbonyl-4-(naphthalen-1-yl)-1H-pyrrole]",1,2.4,15000,25
"CN(C)CCN(C)C(=O)c1cn(Cc2cncn2Cc2ccc3c(c2)OCO3)cc1-c1cccc2ccccc12 [Compound 4, 3-{N-[2-(N,N-Dimethylamino)ethyl]-N-methyl}carbamoyl-1-[1-(3,4-methylendioxybenzyl)-1H-imidazol-5-ylmethyl]-4-(naphthalen-1-yl)-1H-pyrrole]",47,750,10000 to 100000,100 to 1000
COCCN(C)C(=O)c1cn(Cc2cncn2Cc2cccc3ccccc23)cc1-c1cccc2ccccc12 [Compound 5],3.7,8.5,10000 to 50000,25
O=C(c1cn(Cc2cncn2Cc2cccc3ccccc23)cc1-c1cccc2ccccc12)N1CCOCC1 [Compound 6],1,2,10000 to 50000,25
"CN1CCN(C(=O)c2cn(Cc3cncn3Cc3cccc4ccccc34)cc2-c2cccc3ccccc23)CC1 [Compound 7, 3-(4-Methylpiperazin-1-yl)carbonyl-4-(naphthalen-1-yl)-1-[1-(naphthalen-1-ylmethyl)-1H-imidazol-5-ylmethyl]-1H-pyrrole]",0.6,2.2,10000 to 50000,25
COCCN(C)C(=O)c1cn(Cc2cncn2[C@@H](C)c2ccccc2)cc1-c1cccc2ccccc12 [Compound 11],4,8,10000 to 50000,25
"C[C@@H](c1ccccc1)n1cncc1Cn1cc(C(=O)N2CCOCC2)c(-c2cccc3ccccc23)c1 [Compound 12, 1-[1-((S)-α-Methylbenzyl)-1H-imidazol-5-ylmethyl]-3-(morpholin-4-yl)carbonyl-4-(naphthalen-1-yl)-1H-pyrrole]",5,6.6,10000 to 50000,25
"Cn1cncc1Cn1cc(C(=O)N2CCOCC2)c(-c2cccc3ccccc23)c1 [Compound 99, 1-(1-Methyl-1H-imidazol-5-yl)methyl-3-(morpholin-4-yl)carbonyl(naphthalen-1-yl)-1H-pyrrole]",–,–,> 50000,100
"COCCN(C)C(=O)c1cn(Cc2cncn2CC2CCN(C(=O)OCc3ccccc3)CC2)nc1-c1cccc2ccccc12 [Compound 152, 1-[1-(1-Benzyloxycarbonyl-piperidin-4-ylmethyl)-1H-imidazol-5-ylmethyl]-4-[N-(2-methoxyethyl)-N-methyl]carbamoyl-3-(naphthalen-1-yl)-1H-pyrazole]",23,70,–,100
"COCCN(C)C(=O)c1cn(Cc2cncn2CC2CCN(C(=O)OC)CC2)nc1-c1cccc2ccccc12 [Compound 153, 1-[1-(1-Methoxycarbonylpiperidin-4-ylmethyl)-1H-imidazole-5-ylmethyl]-4-[N-(2-methoxyethyl)-N-methyl]-carbamoyl-3-(naphthalen-1-yl)-1H-pyrazole]",30,100,–,150
"COCCN(C)C(=O)c1cn(Cc2cncn2Cc2ccc(Br)cc2)nc1-c1cccc2ccccc12 [Compound 154, 1-[1-(4-Bromobenzyl)-1H-imidazol-5-ylmethyl]-4-[N-(2-methoxyethyl)-N-methyl]-carbamoyl-3-(naphthalen-1-yl)-1H-pyrazole]",30,200,–,150
COC(=O)N1CCC(Cn2cncc2Cn2cc(C(=O)N3CCOCC3)c(-c3cccc4ccccc34)n2)CC1 [Compound 159],300,4000,–,1200
